We go through 9 compounds from patent US11672788B2, “Histone deacetylase inhibitors for immunomodulation in tumor microenvironment” (GREAT NOVEL THERAPEUTICS BIOTECH & MEDICALS CORPORATION, priority 2020, dated 2023).

For series [1], the target named is HDAC3 (Homo sapiens (Human), UniProt O15379). Briefly: HDACs 1, 2, and 3 enzymatic inhibition (fluorogenic kit, 1 h). The series is classed as biochemical. Particulars: 37° C. The procedure: (§1) HDACs assay was performed according to standard Protocols (Fluorgenic HDACs 1, 2, and 3 assay kit, BPS Bioscience™). […] After 1 h, assay developer was added to the samples and the absorbance was read at fluorogenic wavelength. The relative inhibition to HDACs 1, 2, and 3 activities in each sample was determined.

Series [2] has as its target HDAC2 (Homo sapiens (Human), UniProt Q92769). The series is described as above. The series is classed as biochemical. As to conditions: 37° C. The procedure:
as §1

Series [3] concerns the target HDAC1 (Homo sapiens (Human), UniProt Q13547). The series is described as above. The class given is biochemical. As to conditions: 37° C. As for the experimental part:
as §1

The test system of series [4] is SW48. Briefly: In vitro cytotoxicity MTT assay. Particulars: Homo sapiens, SW48, 72 h, IC50 ± SD. The series is classed as cell-based, human. As for the experimental part:
(§2) Six different cell lines were used, including human breast cancer cell line MDA-MB-231 (6×10^3), MDA-MB-453 (2.4×10^4), SK-BR-3 (6×10^3), human breast epithelial cell line M10 (6×10^3), human gastric carcinoma NCI-N87 (2.4×10^4), and human colorectal adenocarcinoma SW48 (2.4×10^4), and seeded in a 96 well plate. Cell lines were obtained from Bioresource Collection and Research Center, BCRC, Taiwan. […] After 72 h, MTT assay (Cayman™) was used to determine the cellular viability.

Series [5] concerns M10. Briefly: In vitro cytotoxicity MTT assay. The series is classed as cell-based, human. As to conditions: Homo sapiens, M10, 72 h, IC50 ± SD. The procedure:
as §2

Series [6] relates to MDA-MB-453. Briefly: In vitro cytotoxicity MTT assay. The series is classed as cell-based, human. As to conditions: Homo sapiens, MDA-MB-453, 72 h, IC50 ± SD. As for the experimental part: as §2
Series [7] deals with MDA-MB-231. Briefly: In vitro cytotoxicity MTT assay. The series is classed as cell-based, human. As to conditions: Homo sapiens, MDA-MB-231, 72 h, IC50 ± SD. As for the experimental part:
as §2

The test system of series [8] is NCI-N87. Briefly: In vitro cytotoxicity MTT assay. Particulars: Homo sapiens, 72 h, IC50 ± SD. The class given is cell-based. The procedure: as §2
Series [9] deals with SW48 cells. Briefly: Cell apoptosis (sub-G1) by PI flow cytometry. The class given is cell-based, human. As to conditions: 72 h. As for the experimental part: (§3) A PI/RNase staining assay (BD Bioscience™) was performed to reveal the presence of cell cycle arrest and apoptotic cells after treatment with GNTbm compounds, Chidamide and Entinostat. […] After treatment cells were harvested, fixed with 80% ethanol for 24 h, washed with 1×PBS and stained with PI/RNase for 15 min at room temperature. The cells were then analyzed using Flow Cytometer within 1 h.

The test system of series [10] is histone H3 acetylation (AcH3) in SW48 cells. Briefly: Western blot of histone H3 acetylation. The series is classed as cell-based, human. As to conditions: SW48, 24 h, FIG. 12c. The procedure:
Human breast cancer MDA-MB-231 cells and human colorectal adenocarcinoma SW48 cells were analyzed. MDA-MB-231 and SW48 were obtained from Bioresource Collection and Research Center (BCRC, Taiwan). MDA-MB-231 and SW48 were grown at 37° C. under humidified air supplemented without CO2 in Leibovitz's L-15 (cat. #11415114, Thermo Fisher Scientific) containing 10% heat inactivated fetal calf serum (Thermo Scientific), 1× concentration of MycoZap antibiotics (cat. #VZA-2011, Lonza). Cells were treated with GNTbm compounds series, Chidamide or Entinostat for different time periods or at varied doses. Cells were treated with indicated doses for 24 h or cells were treated with indicated doses for different time periods. Cell pellets were dissolved with RIPA buffer (cat. #20-188, Merck) with protease and phosphatase inhibitors (cat. #K272, BioVision) and clarified by centrifugation. Equal amounts of total protein were resolved by SDS-PAGE and transferred to polyvinylidene fluoride membranes (cat. #1620177, BIO-RAD). Blots were incubated with primary antibodies against β-actin (cat. #sc-47778, Santa Cruz Biotechnology), Histone 3ac (cat. #61637, Active Motif), and HRP secondary antibodies anti-rabbit (ab6721, Abcam) and anti-mouse (sc-2005, Santa Cruz). Blots were developed using the ECL Western Blotting Substrate (cat. #sc-2048, Santa Cruz Biotechnology) Image blots were analyzed with the iBright FL1000 (Thermo Fisher Scientific) imaging systems.

In series [11] the test system is SW48 cells. Briefly: Cell cycle arrest by PI flow cytometry. The series is classed as cell-based, human. As to conditions: for Percentage of Cell Cycle Distribution G0/G1 / Percentage of Cell Cycle Distribution G2/M / Percentage of Cell Cycle Distribution S: 72 h. As for the experimental part: as §3
Series [12] can be described thus: Saturation solubility. The series is classed as physicochemical. Particulars: ddH2O, 25° C., 90 minutes; mean ± SD; BDL: Below detection limit. As for the experimental part: Samples of 5 mg of compounds were added to 5 ml volumetric flasks containing ddH2O and shaken at 100 rpm in an incubator at 25° C. for 90 minutes. The resulting suspension was filtered through a 0.22 μm filter. The concentrations of compounds were determined spectrophotometrically at 256 nm. The saturation solubility of each sample was determined in triplicates and the mean value and standard deviation were reported.

Chain of HDAC3 (O15379 whole entry): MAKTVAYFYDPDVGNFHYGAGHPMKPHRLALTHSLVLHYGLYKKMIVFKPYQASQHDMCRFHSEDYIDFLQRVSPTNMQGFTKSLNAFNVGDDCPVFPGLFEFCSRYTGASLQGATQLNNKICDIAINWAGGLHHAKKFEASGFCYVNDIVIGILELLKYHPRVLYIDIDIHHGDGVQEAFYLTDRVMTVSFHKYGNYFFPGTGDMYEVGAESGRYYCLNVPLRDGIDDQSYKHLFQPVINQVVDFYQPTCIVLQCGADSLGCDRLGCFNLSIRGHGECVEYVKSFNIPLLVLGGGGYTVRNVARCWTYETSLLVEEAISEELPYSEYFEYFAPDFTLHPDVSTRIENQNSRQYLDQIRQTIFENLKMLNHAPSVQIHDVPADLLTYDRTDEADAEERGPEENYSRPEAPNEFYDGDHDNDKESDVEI
Chain of HDAC3 (Q9Y618 395-489 partner): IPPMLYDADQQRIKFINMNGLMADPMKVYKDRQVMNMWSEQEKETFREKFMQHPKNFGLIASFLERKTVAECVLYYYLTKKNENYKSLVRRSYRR
Chain of HDAC1 (Q13547 whole entry): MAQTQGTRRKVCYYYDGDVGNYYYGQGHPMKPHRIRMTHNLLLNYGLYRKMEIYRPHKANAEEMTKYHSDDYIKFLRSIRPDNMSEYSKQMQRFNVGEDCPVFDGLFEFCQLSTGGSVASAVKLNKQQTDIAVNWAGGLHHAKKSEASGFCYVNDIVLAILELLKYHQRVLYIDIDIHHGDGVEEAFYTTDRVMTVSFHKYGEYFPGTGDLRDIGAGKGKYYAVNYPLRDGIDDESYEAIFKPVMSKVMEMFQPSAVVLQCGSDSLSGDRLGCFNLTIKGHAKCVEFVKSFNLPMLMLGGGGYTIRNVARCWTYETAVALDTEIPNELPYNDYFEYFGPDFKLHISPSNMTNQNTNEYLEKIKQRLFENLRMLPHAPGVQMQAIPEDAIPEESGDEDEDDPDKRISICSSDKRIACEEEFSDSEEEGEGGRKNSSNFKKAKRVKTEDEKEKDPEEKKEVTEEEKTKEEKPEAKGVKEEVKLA
Chain of HDAC2 (Q92769 whole entry): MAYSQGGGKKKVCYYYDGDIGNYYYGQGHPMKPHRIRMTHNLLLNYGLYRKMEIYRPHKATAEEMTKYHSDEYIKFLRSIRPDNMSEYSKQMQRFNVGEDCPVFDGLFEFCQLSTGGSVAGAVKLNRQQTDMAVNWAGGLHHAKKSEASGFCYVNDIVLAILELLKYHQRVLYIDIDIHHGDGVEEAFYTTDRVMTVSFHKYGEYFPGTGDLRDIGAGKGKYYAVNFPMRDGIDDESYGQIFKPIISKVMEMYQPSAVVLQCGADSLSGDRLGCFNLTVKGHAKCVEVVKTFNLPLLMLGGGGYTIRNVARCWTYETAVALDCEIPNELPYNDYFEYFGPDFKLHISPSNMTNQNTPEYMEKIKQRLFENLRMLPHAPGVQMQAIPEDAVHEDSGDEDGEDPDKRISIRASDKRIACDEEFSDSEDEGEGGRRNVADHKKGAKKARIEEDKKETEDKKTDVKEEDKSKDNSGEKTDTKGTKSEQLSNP

With `Cc1ccc(CCCC(=O)Nc2ccc(C(=O)Nc3ccc(F)cc3N)nc2)cn1` [GNTbm-08, 5-(4-(6-methylpyridin-3-yl)butanamido)-N-(2-amino-4-fluorophenyl)pyridine-2-carboxamide], the IC50 in series [1] was 1 ± 0.02 nM; in series [2], 1540 ± 280 nM; in series [3], 0.37 ± 0.31 µM; in series [4] it was 18.4 ± 1 µM; in series [5] it was 20800 ± 140 nM; in series [6], 3780 ± 500 nM. Moreover, the values for the IC50 in series [7] and in series [8] were more than 50 µM and 15.5 ± 1.7 µM, respectively.

Regarding `Nc1cc(F)ccc1NC(=O)c1ccc(NC(=O)C/C=C/c2cccnc2)cc1` [GNTbm-39, 4-((E)-4-(pyridin-3-yl)but-3-enamido)-N-(2-amino-4-fluorophenyl)benzamide], the IC50 in series [1] was 890 ± 130 nM; in series [2], 680 ± 30 nM; in [3] it was 3.7 ± 0.04 µM; in series [4], 1.73 ± 0.01 µM; in [5], 1960 ± 20 nM; in series [6], 1840 ± 20 nM. The values for the IC50 in series [7] and in series [8] were 2.93 ± 0.45 µM and 0.64 ± 0.03 µM, respectively. Moreover, the “Percentages of Cell Apoptosis” value in series [9] (SW48, 0.125 μM) was 9.5%; in series [9] (SW48, 0.5 μM) it was 17.8%; in series [9] (SW48, 1 μM), 25.4%; in series [9] (SW48, 2 μM) it was 37.8%. Also, the Induction of apoptosis entry in series [9] (SW48, indicated doses (Table 13)) is given as “potent in inducing apoptosis in SW48 cells”. In addition, the “Histone 3 acetylation expression versus Chidamide” value in series [10] is listed as “more potent in inducing the histone 3 acetylation expression in SW48 cells than Chidamide”. Further, the “Percentage of Cell Cycle Distribution G0/G1” value in series [11] (SW48, 0.125 μM) came to 57.2%; in series [11] (SW48, 0.5 μM) it was 58.8%; in series [11] (SW48, 1 μM), 46.5%; in series [11] (SW48, 2 μM), 42.3%. Besides, the “Percentage of Cell Cycle Distribution G2/M” value amounted to 22.3% in [11] (SW48, 0.125 μM); 24.7% in series [11] (SW48, 0.5 μM); 32.8% in series [11] (SW48, 1 μM); 38.9% in series [11] (SW48, 2 μM). The “Percentage of Cell Cycle Distribution S” value in series [11] (SW48, 0.125 μM) is listed as 20.5%; in series [11] (SW48, 0.5 μM), 16.5%; in [11] (SW48, 1 μM), 20.7%; in series [11] (SW48, 2 μM), 18.8%. Moreover, the Cell cycle arrest result in series [11] (SW48, doses of Table 12) is recorded as “significantly induced cell cycle arrest in the G2/M phase in SW48 cells”.

For the compound `Cc1ccc(CCCC(=O)Nc2ccc(C(=O)Nc3ccc(C(F)(F)F)cc3N)nc2)cn1` [GNTbm-25, 5-(4-(6-methylpyridin-3-yl)butanamido)-N-(2-amino-4-(trifluoromethyl)phenyl)pyridine-2-carboxamide], the IC50 was more than 20000 nM in series [1]; more than 20000 nM in series [2]; more than 20 µM in series [3]; more than 50 µM in [4]; more than 50000 nM in series [5]; 19100 ± 2070 nM in series [6]. For the same compound, the IC50 in [7] and in series [8] was more than 50 µM in each case.

Turning to `Cc1ccc(/C=C/CC(=O)Nc2ccc(C(=O)Nc3ccccc3N)nc2)cn1` [GNTbm-06, 5-((E)-4-(6-methylpyridin-3-yl)but-3-enamido)-N-(2-aminophenyl)pyridine-2-carboxamide], the “Saturation Solubility” value in series [12] was “BDL”. The IC50 in [1] worked out at 9 ± 10 nM; in series [2] it was 390 ± 20 nM; in series [3], 0.1 ± 0.02 µM; in [4] it was 2.32 ± 0.08 µM; in series [5] it was 1950 ± 30 nM; in [6] it was 1590 ± 10 nM. For the same compound, the IC50 worked out at 3.87 ± 0.7 µM in [7] and 2.2 ± 0.03 µM in series [8].

Regarding `Cc1ccc(/C=C/CC(=O)Nc2ccc(C(=O)Nc3ccc(C(F)(F)F)cc3N)nc2)cn1` [GNTbm-12, 5-((E)-4-(6-methylpyridin-3-yl)but-3-enamido)-N-(2-amino-4-(trifluoromethyl)phenyl)pyridine-2-carboxamide], the IC50 in [1] was more than 20000 nM; in [2], more than 20000 nM; in series [3], more than 20 µM; in series [4], more than 50 µM; in [5] it was 38500 ± 5900 nM; in series [6] it was 15800 ± 3900 nM. Also, the IC50 in series [7] and in [8] was more than 50 µM each time.

With `Nc1cc(C(F)(F)F)ccc1NC(=O)c1ccc(NC(=O)C/C=C/c2cccnc2)cn1` [GNTbm-11, 5-((E)-4-(pyridin-3-yl)but-3-enamido)-N-(2-amino-4-(trifluoromethyl)phenyl)pyridine-2-carboxamide], the IC50 in [1] was 1 nM; in [2] it was more than 20000 nM; in [3], more than 20 µM; in series [4], 2.6 ± 0.45 µM; in series [5], 1650 ± 200 nM; in series [6], 2280 ± 60 nM. Besides, the IC50 was determined as 1.71 ± 0.04 µM in series [7] and 1.87 ± 0.04 µM in [8].

Take `Nc1cc(F)ccc1NC(=O)c1ccc(NC(=O)CCCc2cccnc2)cc1` [GNTbm-37, 4-(4-(pyridin-3-yl)butanamido)-N-(2-amino-4-fluorophenyl)benzamide]: the IC50 in [1] amounted to 1740 ± 290 nM; in series [2], 3150 ± 310 nM; in [3], 9.04 ± 0.6 µM; in series [4] it was 21.3 ± 1.64 µM; in [5], 8850 ± 590 nM; in series [6] it was 4890 ± 340 nM. Besides, the IC50 in series [7] came to 8.07 ± 0.54 µM; in series [8], 10.7 ± 0.6 µM.

Turning to `Cc1ccc(CCCC(=O)Nc2ccc(C(=O)Nc3ccccc3N)nc2)cn1` [GNTbm-19, 5-(4-(6-methylpyridin-3-yl)butanamido)-N-(2-aminophenyl)pyridine-2-carboxamide], the IC50 was found to be 2980 ± 80 nM in series [1]; 1420 ± 190 nM in [2]; 0.48 ± 0.03 µM in series [3]; 8.73 ± 0.24 µM in series [4]; 2890 ± 120 nM in [5]; 1810 ± 20 nM in [6]. Besides, the IC50 was 5.69 ± 1.7 µM in series [7] and 4.3 ± 1.4 µM in series [8].

Regarding `Nc1cc(C(F)(F)F)ccc1NC(=O)c1ccc(NC(=O)C/C=C/c2cccnc2)cc1` [GNTbm-33, 4-((E)-4-(pyridin-3-yl)but-3-enamido)-N-(2-amino-4-(trifluoromethyl)phenyl)benzamide], the IC50 in series [1] was more than 20000 nM; in [2], more than 20000 nM; in series [3], more than 20 µM; in series [4], 1.79 ± 0.03 µM; in series [5] it was 2010 ± 90 nM; in [6] it was 1940 ± 220 nM. Besides, the IC50 was found to be 1.62 ± 0.02 µM in series [7] and 1.75 ± 0.02 µM in [8].
